According to article PMC3724117 (British Journal of Pharmacology, 2013):
Where two headings read alike, the source gives them in different places. Values belong to the molecule of their own block, whether it stands above or below them.

How the values were obtained:
[1] = tested on: intracellular Ca^2+ stores; experiment: Ca2+ content of the intracellular stores of human ASMC; format: cell-based; conditions: 2-APB, stores assessed with ionomycin 1 μM
[2] = tested on: histamine-evoked Ca^2+ signals; format: cell-based, human; conditions: for IC50: Homo sapiens
EP2 receptors = EP2 receptors (Homo sapiens, UniProt P43116); format: cell-based
EP2 receptors, sequence (P43116 whole entry): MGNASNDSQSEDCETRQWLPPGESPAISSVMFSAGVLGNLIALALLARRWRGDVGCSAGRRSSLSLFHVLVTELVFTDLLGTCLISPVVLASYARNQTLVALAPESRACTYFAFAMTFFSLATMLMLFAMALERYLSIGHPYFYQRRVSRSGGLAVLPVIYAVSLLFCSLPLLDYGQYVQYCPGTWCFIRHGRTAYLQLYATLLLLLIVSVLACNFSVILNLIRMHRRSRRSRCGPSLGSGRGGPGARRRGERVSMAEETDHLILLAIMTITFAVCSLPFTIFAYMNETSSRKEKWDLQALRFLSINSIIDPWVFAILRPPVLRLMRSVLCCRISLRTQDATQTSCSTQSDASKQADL

EP2 receptor = conditions: 2000, cited from earlier work; for pKD, EP2 receptor: reported affinity, ref Abramovitz et al.
AC activity [3] = experiment: cAMP accumulation in human ASMC, HitHunter cAMP HS+ assay; format: cell-based
EP4 receptors = EP4 receptors (Homo sapiens, UniProt P35408); format: cell-based
EP4 receptors, sequence (P35408 whole entry): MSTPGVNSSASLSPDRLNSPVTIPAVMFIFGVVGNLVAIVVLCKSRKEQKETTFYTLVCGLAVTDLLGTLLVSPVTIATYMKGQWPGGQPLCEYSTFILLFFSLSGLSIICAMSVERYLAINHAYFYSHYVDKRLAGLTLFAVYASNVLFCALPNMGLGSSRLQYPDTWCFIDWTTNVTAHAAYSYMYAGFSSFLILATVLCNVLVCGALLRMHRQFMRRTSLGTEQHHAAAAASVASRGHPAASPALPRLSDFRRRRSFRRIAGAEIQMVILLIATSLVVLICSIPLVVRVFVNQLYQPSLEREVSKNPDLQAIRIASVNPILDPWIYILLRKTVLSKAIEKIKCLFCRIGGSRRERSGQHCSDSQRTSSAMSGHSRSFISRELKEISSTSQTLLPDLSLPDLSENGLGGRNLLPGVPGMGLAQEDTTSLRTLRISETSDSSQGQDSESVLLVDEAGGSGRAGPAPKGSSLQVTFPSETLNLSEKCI

EP4 receptor = conditions: cited from earlier work
AC activity [4] = experiment: cAMP accumulation in human ASMC, 3H-adenine-labelling assay; format: cell-based; conditions: read-out: pEC50 for cAMP accumulation (converted)
human ASMC = experiment: Direct effect of drug alone on [Ca2+]i in human ASMC; format: cell-based
[5] = read-out: [Ca2+]i, pIC50, Control (converted)

SMILES: NCCOB(c1ccccc1)c1ccccc1 [2-APB, 2-aminoethoxydiphenyl borate]
effect on Ca2+ content of the intracellular stores [1]: substantial loss | effect on Ca2+ signals evoked by histamine ([2]; 2-APB 5 min before, histamine 3 μM or 1 mM, Ca2+-free HBS): concentration-dependent inhibition

Kd (EP2 receptors): 2510 nM | ΔpIC50 (pIC50 control − pIC50 +antagonist) of L902,688 ([2]; AH6809 30 μM, histamine 3 μM): −0.01 ± 0.27 | ΔpIC50 (pIC50 control − pIC50 +antagonist) of PGE2 ([2]; AH6809 30 μM, histamine 3 μM): 0.62 ± 0.13 | ΔpIC50 (pIC50 control − pIC50 +antagonist) of butaprost ([2]; AH6809 30 μM, histamine 3 μM): 1.12 ± 0.15
SMILES: CC(C)Oc1ccc2c(=O)c3cc(C(=O)O)ccc3oc2c1 [AH6809, 6-isopropoxy-9-oxoxanthene-2-carboxylic acid]
pKD, EP2 receptor (EP2 receptor): 5.9

SMILES: O=C(O)CCCCCC[C@H]1C(=O)NC(=O)N1CCC(O)C1CCCCC1 (stereo partly drawn) [BW 245C, (4S)-(3-[(3R,S)-3-cyclohexyl-3-hydroxypropyl]-2,5-dioxo)-4-imidazolidineheptanoic acid]
effect on histamine-evoked Ca2+ signals ([2]; BW 245C 10 nM, histamine 3 μM): no effect

EC50 for cAMP accumulation relative to PGE2 (higher) (AC activity [3]; butaprost vs PGE2): ~10 fold | IC50 [2, 5]: 6.03 nM | difference between functional pIC50 and published binding affinity (pKD) ([2]; pIC50 8.22 vs pKD 7.04): more than 10 fold
SMILES: CCCC1([C@H](O)C/C=C/[C@H]2[C@H](O)CC(=O)[C@@H]2CCCCCCC(=O)OC)CCC1 [Butaprost]
affinity for human EP2 receptors relative to PGE2 (lower) (EP2 receptor; ref Narumiya et al., 1999, Abramovitz et al.): ~20 fold | pKD, EP2 receptor (EP2 receptor): 7.04

Kd (EP4 receptors): 6.31 nM | ΔpIC50 (pIC50 control − pIC50 +antagonist) of L902,688 ([2]; GW627368X 1 μM, histamine 3 μM): 2.20 ± 0.28 | ΔpIC50 (pIC50 control − pIC50 +antagonist) of PGE2 ([2]; GW627368X 1 μM, histamine 3 μM): 0.24 ± 0.08 | ΔpIC50 (pIC50 control − pIC50 +antagonist) of butaprost ([2]; GW627368X 1 μM, histamine 3 μM): −0.21 ± 0.14
SMILES: CCOc1c2c(c(OCC)c3ccccc13)C(=O)N(c1ccc(CC(=O)NS(=O)(=O)c3ccccc3)cc1)C2 [GW627368X, 2-[4-(4,9-diethoxy-3-oxo-1H-benzo[f]isoindol-2-yl)phenyl]-N-phenylsulfonylacetamide]

cAMP, pEC50, Control (AC activity [3]; HitHunter HS+ assay, 5 min): 7.76 ± 0.11 (3) /M | [Ca2+]i, pIC50, Control ([2]; histamine 3 μM, agonist alone): 9.52 ± 0.25 (3) /M
SMILES: O=C1CC[C@H](/C=C/[C@@H](O)C(F)(F)c2ccccc2)N1CCCCCCc1nn[nH]n1 [L902,688, 5-[(1E,3R)-4,4-difluoro-3-hydroxy-4-phenyl-1-buten-1-yl]-1-[6-(2H-tetrazol-5R-yl)hexyl]-2-pyrrolidinone]
affinity for EP4 receptors relative to PGE2 (greater) (EP4 receptor; ref Supporting Information Table S4): approximately twofold | pKD, EP4 receptor (EP4 receptor; reported affinity, ref Young et al., 2004): 9.4

EC50 (AC activity [4]): 214 nM | IC50 [2, 5]: 0.537 nM
SMILES: CCCCC[C@H](O)/C=C/[C@H]1[C@H](O)CC(=O)[C@@H]1C/C=C\CCCC(=O)O [PGE2, Prostaglandin E2]
effect on [Ca2+]i (human ASMC; PGE2 alone (10 μM)): no effect

SMILES: CS(=O)(=O)NC(=O)CCC/C=C\C[C@H]1C(=O)C[C@@H](O)[C@@H]1/C=C/[C@@H](O)COc1ccccc1 [Sulprostone, sulprostone]
effect on histamine-evoked Ca2+ signals ([2]; sulprostone 1 μM, histamine 3 μM): no effect

IC50 ([2]; read-out: pIC50 for inhibition of Ca2+ signals evoked by histamine (converted)): 1740 nM
SMILES: COc1ccc2c(c1)CC[C@@H]1[C@@H]2CC[C@]2(C)[C@@H](NCCCCCCN3C(=O)C=CC3=O)CC[C@@H]12 [U73122, 1-[6-[[(17β)-3-methoxyestra-1,3,5(10)-trien-17-yl]amino]hexyl]-1H-pyrrole-2,5-dione]

SMILES: COc1ccc2c(c1)CC[C@@H]1[C@@H]2CC[C@]2(C)[C@@H](NCCCCCCN3C(=O)CCC3=O)CC[C@@H]12 [U73343, 1-[6-[[(17β)-3-methoxyestra-1,3,5(10)-trien-17-yl]amino]hexyl]-2,5-pyrrolidinedione]
effect on Ca2+ signals evoked by histamine ([2]; U73343 ≤10 μM, histamine 100 μM): no effect

SMILES: Cn1c(=O)c2c(ncn2C)n(C)c1=O [caffeine]
effect on [Ca2+]i (human ASMC; caffeine 10 mM): no effect

SMILES: COc1ccc2c(c1)c(CC(=O)O)c(C)n2C(=O)c1ccc(Cl)cc1 [indomethacin, Indomethacin]
effect on histamine-evoked Ca2+ signals ([2]; indomethacin 10 μM, 5 min): nor indomethacin, an inhibitor of cyclooxygenases (Figure 1F), had any effect

SMILES: CC(C)OC(=O)CCC/C=C\C[C@@H]1[C@@H](CC[C@@H](O)CCc2ccccc2)[C@H](O)C[C@@H]1O [latanoprost]
effect on histamine-evoked Ca2+ signals ([2]; latanoprost 100 nM, histamine 3 μM): no effect

SMILES: CC(C)[C@@]1(O)[C@@H](OC(=O)c2ccc[nH]2)[C@@]2(O)[C@@]3(C)C[C@]4(O)O[C@@]5([C@H](O)[C@@H](C)CC[C@]35O)[C@@]2(O)[C@@]14C [ryanodine, Ryanodine]
effect on responses to histamine ([2]; ryanodine 100 μM, 5 min): unaffected

SMILES: COc1ccc([C@H]2N[C@H](C(=O)O)Cc3c2[nH]c2ccccc32)cc1CN1CCN(c2ccccc2F)CC1 [trans-Ned-19, (1R,3S)-1-[3-[[4-(2-fluorophenyl)piperazin-1-yl]methyl]-4-methoxyphenyl]-2,3,4,9-tetrahydro-1H-pyrido[3,4-b]indole-3-carboxylic acid]
effect on responses to histamine ([2]; trans-Ned-19 1 μM, 5 min): unaffected
